Results: patent publication US8124793B2, “Derivatives of ethylene methanedisulfonate as cancer chemotherapeutic agents” (priority 2007, dated 2012)

What was measured:
Format in all cases: cell-based
U-251 = test: NCI screen, growth of human tumor cells: CNS Cancer U-251
In short: (§1)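 The NCI screen tests each compound on human cancer cell lines and reports percent growth. Concentrations are given in molar units; the number of data points per compound is sixty at minimum.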

DU-145 = test: NCI screen, growth of human tumor cells: Prostate Cancer DU-145; conditions: DV-145, 10^−4 molar
In short: as §1

MCF7/ADR-RES = test: NCI screen, growth of human tumor cells: Breast Cancer MCF7/ADR-RES; conditions: MCF7/ADR-RES (Breast Cancer), 10^−4 molar
In short: as §1

786-0 = test: NCI screen, growth of human tumor cells: Renal Cancer 786-0; conditions: 786-0, 10^−4 molar
In short: as §1

TK-10 = test: NCI screen, growth of human tumor cells: Renal Cancer TK-10; conditions: TK-10, 10^−4 molar
In short: as §1

HOP-62 = test: NCI screen, growth of human tumor cells: Non-Small Cell Lung HOP-62; conditions: HOP-62, 10^−4 molar
In short: as §1

SK-MEL-5 = test: NCI screen, growth of human tumor cells: Melanoma SK-MEL-5
In short: as §1

BT-549 = test: NCI screen, growth of human tumor cells: Breast Cancer BT-549
In short: as §1

OVCAR-5 = test: NCI screen, growth of human tumor cells: Ovarian Cancer OVCAR-5; conditions: OVCAR-5, 10^−4 molar
In short: as §1

UACC-257 = test: NCI screen, growth of human tumor cells: Melanoma UACC-257; conditions: UACC-257, 10^−4 molar
In short: as §1

OVCAR-8 = test: NCI screen, growth of human tumor cells: Ovarian Cancer OVCAR-8; conditions: OVCAR-8 (Ovarian Cancer), 10^−4 molar
In short: as §1

CCRF-CEM = test: NCI screen, growth of human tumor cells: Leukemia CCRF-CEM; conditions: for % Growth: CCRF-CEM
In short: as §1

HOP-92 = test: NCI screen, growth of human tumor cells: Non-Small Cell Lung HOP-92; conditions: HOP-92 (Non-Small Cell Lung), 10^−4 molar
In short: as §1

NCI-H322M = test: NCI screen, growth of human tumor cells: Non-Small Cell Lung NCI-H322M; conditions: NCI-H322M, 10^−4 molar
In short: as §1

SN12C = test: NCI screen, growth of human tumor cells: Renal Cancer SN12C; conditions: SN12C, 10^−4 molar
In short: as §1

SR = test: NCI screen, growth of human tumor cells: Leukemia SR; conditions: for % Growth: SR
In short: as §1

IGROVI = test: NCI screen, growth of human tumor cells: Ovarian Cancer IGROVI; conditions: IGROVI, 10^−4 molar
In short: as §1

UO-31 = test: NCI screen, growth of human tumor cells: Renal Cancer UO-31; conditions: UO-31, 10^−4 molar
In short: as §1

SK-MEL-28 = test: NCI screen, growth of human tumor cells: Melanoma SK-MEL-28
In short: as §1

NCI-H226 = test: NCI screen, growth of human tumor cells: Non-Small Cell Lung NCI-H226
In short: as §1

MCF 7 = test: NCI screen, growth of human tumor cells: Breast Cancer MCF 7
In short: as §1

ACHN = test: NCI screen, growth of human tumor cells: Renal Cancer ACHN; conditions: ACHN, 10^−4 molar
In short: as §1

SNB-75 = test: NCI screen, growth of human tumor cells: CNS Cancer SNB-75; conditions: SNB-75, 10^−4 molar
In short: as §1

CAKI-1 = test: NCI screen, growth of human tumor cells: Renal Cancer CAKI-1
In short: as §1

OVCAR-3 = test: NCI screen, growth of human tumor cells: Ovarian Cancer OVCAR-3; conditions: OVCAR-3, 10^−4 molar
In short: as §1

LOXIMVI = test: NCI screen, growth of human tumor cells: Melanoma LOXIMVI; conditions: for % Growth: LOXIMVI
In short: as §1

SF-268 = test: NCI screen, growth of human tumor cells: CNS Cancer SF-268; conditions: SF-268 (CNS Cancer), 10^−4 molar
In short: as §1

SNB-19 = test: NCI screen, growth of human tumor cells: CNS Cancer SNB-19
In short: as §1

OVCAR-4 = test: NCI screen, growth of human tumor cells: Ovarian Cancer OVCAR-4; conditions: OVCAR-4, 10^−4 molar
In short: as §1

HT29 = test: NCI screen, growth of human tumor cells: Colon Cancer HT29
In short: as §1

PC-3 = test: NCI screen, growth of human tumor cells: Prostate Cancer PC-3
In short: as §1

HCC-2998 = test: NCI screen, growth of human tumor cells: HCC-2998 (listed under Non-Small Cell Lung)
In short: as §1

K562 = test: NCI screen, growth of human tumor cells: Leukemia K562
In short: as §1

MALME-3M = test: NCI screen, growth of human tumor cells: Melanoma MALME-3M; conditions: 10^−4 molar
In short: as §1

SF-295 = test: NCI screen, growth of human tumor cells: CNS Cancer SF-295
In short: as §1

HCT-116 = test: NCI screen, growth of human tumor cells: Colon Cancer HCT-116
In short: as §1

NCI-H23 = test: NCI screen, growth of human tumor cells: Non-Small Cell Lung NCI-H23
In short: as §1

AS49/ATCC = test: NCI screen, growth of human tumor cells: Non-Small Cell Lung AS49/ATCC; conditions: A549/ATCC, 10^−4 molar
In short: as §1

Question: With `CC1(C)OCC(COC(=O)C(=O)C2(Cc3ccc4c(c3)C(=O)c3ccccc3C4=O)S(=O)(=O)OCCOS2(=O)=O)O1` (stereo not drawn) [NSC 737276] as the compound, how does the “percent of growth of human tumor cells” value (U-251; U-251 (CNS Cancer), 10^−4 molar) read?
Answer: Its value is −53%.

Question: And the “% Growth” value (DU-145)?
Answer: The value was −81%.

Question: And the “percent of growth of human tumor cells” value (MCF7/ADR-RES)?
Answer: The value was −29%.

Question: And the “% Growth” value (786-0)?
Answer: The value was −74%.

Question: And the “% Growth” value (TK-10)?
Answer: The value was −73%.

Question: What about the “% Growth” value (HOP-62) of the same compound?
Answer: Its value is −84%.

Question: And the “percent of growth of human tumor cells” value (SK-MEL-5; SK-MEL-5 (Melanoma), 10^−4 molar)?
Answer: The value was −4%.

Question: What about the “percent of growth of human tumor cells” value (BT-549; BT-549 (Breast Cancer), 10^−4 molar) of the same compound?
Answer: Its value is −49%.

Question: What about the “% Growth” value (OVCAR-5) of the same compound?
Answer: Its value is −89%.

Question: What about the “% Growth” value (UACC-257) of the same compound?
Answer: Its value is −76%.

Question: What about the “percent of growth of human tumor cells” value (OVCAR-8) of the same compound?
Answer: The value was 5%.

Question: And the “percent of growth of human tumor cells” value (CCRF-CEM; CCRF-CEM (Leukemia), 10^−4 molar)?
Answer: The value was −38%.

Question: What about the “percent of growth of human tumor cells” value (HOP-92) of the same compound?
Answer: The value was −47%.

Question: And the “% Growth” value (NCI-H322M)?
Answer: Its value is −87%.

Question: What about the “% Growth” value (SN12C) of the same compound?
Answer: The value was −64%.

Question: And the “percent of growth of human tumor cells” value (SR; SR (Leukemia), 10^−4 molar)?
Answer: Its value is 12%.

Question: What about the “% Growth” value (IGROVI) of the same compound?
Answer: Its value is −70%.

Question: And the “% Growth” value (UO-31)?
Answer: Its value is −81%.

Question: And the “percent of growth of human tumor cells” value (SK-MEL-28; SK-MEL-28 (Melanoma), 10^−4 molar)?
Answer: The value was −52%.

Question: And the “percent of growth of human tumor cells” value (NCI-H226; NCI-H226 (Non-Small Cell Lung), 10^−4 molar)?
Answer: The value was 10%.

Question: What about the “percent of growth of human tumor cells” value (MCF 7; MCF 7 (Breast Cancer), 10^−4 molar) of the same compound?
Answer: Its value is −59%.

Question: And the “% Growth” value (ACHN)?
Answer: The value was −82%.

Question: What about the “% Growth” value (SNB-75) of the same compound?
Answer: Its value is −87%.

Question: What about the “percent of growth of human tumor cells” value (CAKI-1; CAKI-1 (Renal Cancer), 10^−4 molar) of the same compound?
Answer: Its value is 15%.

Question: And the “% Growth” value (OVCAR-3)?
Answer: The value was −71%.

Question: And the “percent of growth of human tumor cells” value (LOXIMVI; LOXIMVI (Melanoma), 10^−4 molar)?
Answer: The value was −48%.

Question: And the “percent of growth of human tumor cells” value (SF-268)?
Answer: Its value is −40%.

Question: What about the “percent of growth of human tumor cells” value (SNB-19; SNB-19 (CNS Cancer), 10^−4 molar) of the same compound?
Answer: The value was −59%.

Question: And the “% Growth” value (OVCAR-4)?
Answer: The value was −73%.

Question: What about the “percent of growth of human tumor cells” value (HT29; HT29 (Colon Cancer), 10^−4 molar) of the same compound?
Answer: Its value is −25%.

Question: And the “% Growth” value (PC-3; PC-3, 10^−4 molar)?
Answer: The value was −68%.

Question: And the “% Growth” value (HCC-2998; HCC-2998, 10^−4 molar)?
Answer: Its value is −96%.

Question: What about the “percent of growth of human tumor cells” value (K562; K562 (Leukemia), 10^−4 molar) of the same compound?
Answer: Its value is 29%.

Question: What about the “percent of growth of human tumor cells” value (MALME-3M; MALME-3M (Melanoma)) of the same compound?
Answer: The value was −50%.

Question: What about the “percent of growth of human tumor cells” value (SF-295; SF-295 (CNS Cancer), 10^−4 molar) of the same compound?
Answer: The value was −12%.

Question: What about the “% Growth” value (HCT-116; HCT-116, 10^−4 molar) of the same compound?
Answer: Its value is −86%.

Question: What about the “% Growth” value (NCI-H23; NCI-H23, 10^−4 molar) of the same compound?
Answer: Its value is −75%.

Question: What does the source list for `Cc1ccc2ccccc2c1CC1S(=O)(=O)OCCOS1(=O)=O` [NSC 679043, ethylene 2-methyl-1-naphyl-1,1-ethanedisulfonate]?
Answer: % Growth (U-251; U251, 10^−4 molar): −96%; % Growth (DU-145): −100%; percent of growth of human tumor cells (MCF7/ADR-RES): −12%; % Growth (786-0): −97%; % Growth (TK-10): −93%; % Growth (HOP-62): −77%; % Growth (SK-MEL-5; SK-MEL-5, 10^−4 molar): −91%; % Growth (AS49/ATCC): −77%; % Growth (BT-549; BT-549, 10^−4 molar): −82%; % Growth (BT-549; BT-549, 10^−5 molar): 57%; % Growth (OVCAR-5): −98%; percent of growth of human tumor cells (OVCAR-8): −53%; % Growth (CCRF-CEM; 10^−4 molar): −49%; % Growth (CCRF-CEM; 10^−5 molar): 37%; % Growth (SN12C): −85%; % Growth (SR; 10^−4 molar): −63%; % Growth (SR; 10^−5 molar): 42%; % Growth (UO-31): −100%; % Growth (SK-MEL-28; SK-MEL-28, 10^−4 molar): −78%; % Growth (NCI-H226; NCI-H226, 10^−4 molar): −63%; % Growth (NCI-H226; NCI-H226, 10^−5 molar): 49%; % Growth (MCF 7; MCF7, 10^−4 molar): −78%; % Growth (MCF 7; MCF7, 10^−5 molar): 45%; % Growth (ACHN): −90%; % Growth (CAKI-1; CAKI-1, 10^−4 molar): −100%; % Growth (OVCAR-3): −100%; % Growth (LOXIMVI; 10^−4 molar): −84%; % Growth (LOXIMVI; 10^−5 molar): 45%; % Growth (SNB-19; SNB-19, 10^−4 molar): −95%; % Growth (OVCAR-4): −97%; % Growth (HT29; HT-29, 10^−4 molar): −95%; % Growth (HT29; HT-29, 10^−5 molar): 57%; % Growth (PC-3; PC-3, 10^−4 molar): −91%; % Growth (PC-3; PC-3, 10^−5 molar): 57%; % Growth (HCC-2998; HCC-2998, 10^−4 molar): −88%; % Growth (HCC-2998; HCC-2998, 10^−5 molar): 22%; % Growth (K562; K562, 10^−4 molar): −42%; % Growth (K562; K562, 10^−5 molar): 48%; % Growth (MALME-3M; MALME-3M): −88%; % Growth (SF-295; SF-295, 10^−4 molar): −88%; % Growth (HCT-116; HCT-116, 10^−4 molar): −99%; % Growth (HCT-116; HCT-116, 10^−5 molar): 15%; % Growth (NCI-H23; NCI-H23, 10^−4 molar): −48%; % Growth (NCI-H23; NCI-H23, 10^−5 molar): 75%
